For one test, the target named is T1, Recombinant human MAO-B (Homo sapiens, UniProt P27338).
T1 construct: purchased Sigma Aldrich
T1 sequence (P27338 1-520): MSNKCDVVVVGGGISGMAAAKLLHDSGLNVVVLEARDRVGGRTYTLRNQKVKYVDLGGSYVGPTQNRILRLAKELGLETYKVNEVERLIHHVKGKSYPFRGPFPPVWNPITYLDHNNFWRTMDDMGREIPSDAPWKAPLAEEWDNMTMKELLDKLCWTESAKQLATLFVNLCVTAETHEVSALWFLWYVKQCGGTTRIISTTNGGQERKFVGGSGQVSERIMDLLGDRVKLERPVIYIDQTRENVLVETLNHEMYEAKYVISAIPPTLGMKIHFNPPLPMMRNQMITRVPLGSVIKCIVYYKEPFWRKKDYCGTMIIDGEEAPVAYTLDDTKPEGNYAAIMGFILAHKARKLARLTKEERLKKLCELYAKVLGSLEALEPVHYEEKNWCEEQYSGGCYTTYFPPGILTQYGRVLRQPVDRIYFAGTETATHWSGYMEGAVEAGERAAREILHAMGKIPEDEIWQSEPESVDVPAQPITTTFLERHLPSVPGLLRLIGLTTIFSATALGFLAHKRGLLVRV
Description: Inhibition of human recombinant MAO-B. Type of test: biochemical. As to conditions: incubation time of 2 hours, benzylamine 100 μM. How it is done:
Method to Determine the Ability of Compounds of Formula I to Inhibit Human Recombinant MAO-B
The ability of the compounds of this invention to inhibit MAO-B activities in vitro was tested. Recombinant human MAO-B (0.06 mg/mL; Sigma Aldrich) was used as source of MAO-B enzyme activities.

For a further test, the target named is T2, recombinant human MAO-A (Homo sapiens, UniProt P21397).
T2 construct: purchased Sigma Aldrich
T2 sequence (P21397 1-527): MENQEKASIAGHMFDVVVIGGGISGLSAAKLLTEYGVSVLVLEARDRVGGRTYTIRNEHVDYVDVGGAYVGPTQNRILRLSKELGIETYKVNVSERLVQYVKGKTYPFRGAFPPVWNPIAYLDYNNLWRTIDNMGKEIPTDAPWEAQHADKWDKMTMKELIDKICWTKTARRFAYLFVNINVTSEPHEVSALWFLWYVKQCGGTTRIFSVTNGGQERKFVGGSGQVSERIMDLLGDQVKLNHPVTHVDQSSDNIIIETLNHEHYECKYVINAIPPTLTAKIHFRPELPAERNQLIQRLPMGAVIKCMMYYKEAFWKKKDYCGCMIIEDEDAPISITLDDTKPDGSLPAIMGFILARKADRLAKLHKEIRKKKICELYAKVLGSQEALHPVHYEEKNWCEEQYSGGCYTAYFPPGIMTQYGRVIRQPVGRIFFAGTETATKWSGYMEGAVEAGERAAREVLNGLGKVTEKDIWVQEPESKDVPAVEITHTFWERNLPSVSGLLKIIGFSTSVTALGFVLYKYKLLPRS
Description: Inhibition of human recombinant MAO-A. Type of test: biochemical. As to conditions: incubation time of 2 hours, tyramine 100 μM. The protocol: Method to Determine the Ability of Compounds of Formula I to Inhibit Human Recombinant MAO-A
The selectivity of the compounds of this invention was tested by determining their ability to inhibit MAO-A activity in vitro, using recombinant human MAO-A (0.003 mg/mL; Sigma Aldrich). The assay was performed in a similar way as for human SSAO/VAP-1 (EXAMPLE 9) except, the substrate tyramine was used at 100 μM in place of benzylamine and the assay was run after an incubation time of 2 hours.

Test [1] concerns the target T3, human recombinant SSAO/VAP-1 (Homo sapiens, UniProt Q16853).
T3 construct: a cloned cDNA template corresponding to residues 34-763 of human SSAO/VAP-1; TEV cleavage site (N); made in house
T3 sequence (Q16853 34-763): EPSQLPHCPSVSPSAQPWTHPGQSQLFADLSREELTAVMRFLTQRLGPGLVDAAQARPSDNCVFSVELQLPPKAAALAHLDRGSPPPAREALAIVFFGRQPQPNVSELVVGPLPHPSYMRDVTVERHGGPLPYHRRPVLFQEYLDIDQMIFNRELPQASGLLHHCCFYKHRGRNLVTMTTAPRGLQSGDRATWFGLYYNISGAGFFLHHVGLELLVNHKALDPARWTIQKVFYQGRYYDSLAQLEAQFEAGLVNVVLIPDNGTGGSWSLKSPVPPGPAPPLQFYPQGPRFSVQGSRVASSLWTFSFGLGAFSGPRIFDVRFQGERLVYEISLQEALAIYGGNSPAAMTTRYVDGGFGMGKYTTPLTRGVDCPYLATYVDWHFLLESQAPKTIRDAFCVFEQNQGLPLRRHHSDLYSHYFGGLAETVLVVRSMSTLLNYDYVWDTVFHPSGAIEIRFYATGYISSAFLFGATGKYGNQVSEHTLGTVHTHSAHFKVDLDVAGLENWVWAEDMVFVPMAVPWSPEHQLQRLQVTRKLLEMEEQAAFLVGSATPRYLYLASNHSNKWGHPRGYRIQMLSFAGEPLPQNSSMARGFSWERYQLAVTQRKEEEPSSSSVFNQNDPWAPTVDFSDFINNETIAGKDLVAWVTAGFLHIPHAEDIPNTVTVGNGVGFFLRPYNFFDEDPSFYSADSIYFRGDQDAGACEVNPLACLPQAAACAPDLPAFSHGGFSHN
The test is described as follows: Inhibition of human recombinant SSAO/VAP-1 (Amplex Red fluorometric assay). Type of test: biochemical. As to conditions: 30 min incubation, 37° C., benzylamine substrate. How it is done: Method to Determine the Ability of Compounds of Formula I to Inhibit Human Recombinant SSAO/VAP-1
Human recombinant SSAO/VAP-1 amine oxidase activity was determined using the method as described for monoamine oxidase, copper-containing amine oxidases and related enzymes (Holt A. and Palcic M., Nat. Protoc. 2006, 1, 2498-2505). Briefly, a cloned cDNA template corresponding to residues 34-763 of human SSAO/VAP-1, and incorporating a mouse Ig kappa (κ) signal sequence, N-terminal flag epitope tag and tobacco etch virus (TEV) cleavage site, was assembled in a mammalian expression vector (pLO-CMV) by Geneart AG. This vector containing human SSAO/VAP-1 residues was transfected into CHO-K1 glycosylation mutant cell line, Lec 8. A clone stably expressing human SSAO/VAP-1 was isolated and cultured in large scale. Active human SSAO/VAP-1 was purified and recovered using immunoaffinity chromatography. This was used as the source for SSAO/VAP-1 activity. A high-throughput colorimetric assay was developed using either 96 or 384 well format. Briefly, in a standard 96 well plate assay 50 μL of purified human SSAO/VAP-1 (0.25 μg/mL) in 0.1 M sodium phosphate buffer (pH 7.4) was added into each well. […] After 30 min incubation, 50 μL of the reaction mixture containing 600 μM benzylamine (Sigma Aldrich), 120 μM Amplex Red (Sigma Aldrich) and 1.5 U/mL horseradish peroxidase (Sigma Aldrich) prepared in 0.1 M sodium phosphate buffer (pH 7.4) were added to the corresponding well. The fluorescence unit (RFU) was read every 2.5 min for 30 min at 37° C. excitation 565 nm and emission 590 nm (Optima; BMG labtech). The slope of the kinetics for each well was calculated using MARS data analysis software (BMG labtech) and this value was used to deduce the IC50 value (Dotmatics).

The test system of another test is mdx mice. The following applies: 3-month old mdx mice, Vitiello L. et al. 2018; cited from earlier work.
The subject of test [2] is Myogenic cell cultures from both mdx mice and DMD patients. As to conditions: in vitro; cited from earlier work.

A value given as a limit tells only on which side of the number the result lay.

The term IC50 denotes the concentration that inhibits the measured activity by half. For the compound `N#Cc1ccc(OC/C(=C/F)CN)cc1F` [Compound 2, (E)-4-((2-(aminomethyl)-3-fluoroallyl)oxy)-2-fluorobenzonitrile], the IC50 on Recombinant human MAO-B is below 50 nM; on recombinant human MAO-A it was above 30000 nM; in test [1], below 10 nM.

For the compound `N#Cc1ccc(OC/C(=C/F)CN)cc1Br` [Compound 3, (E)-4-((2-(aminomethyl)-3-fluoroallyl)oxy)-2-bromobenzonitrile], the IC50 is below 50 nM on Recombinant human MAO-B, 3000 to 30000 nM on recombinant human MAO-A and below 10 nM in test [1].

For the compound `N#Cc1ccc(OC/C(=C/F)CN)c(F)c1` [Compound 4, (E)-4-((2-(aminomethyl)-3-fluoroallyl)oxy)-3-fluorobenzonitrile], the IC50 is below 50 nM at Recombinant human MAO-B, 3000 to 30000 nM at recombinant human MAO-A and below 10 nM in test [1].

Regarding `Cc1cc(OC/C(=C/F)CN)ccc1C#N` [Compound 5, (E)-4-((2-(aminomethyl)-3-fluoroallyl)oxy)-2-methylbenzonitrile], the values for the IC50 (at Recombinant human MAO-B; at recombinant human MAO-A; in test [1]) were below 50 nM, 3000 to 30000 nM and below 10 nM, respectively.

Regarding `N#Cc1ccc(OC/C(=C\F)CN)cc1` [Compound 6], the IC50 on Recombinant human MAO-B was below 50 nM; at recombinant human MAO-A, 300 to 3000 nM; in test [1] it was below 10 nM.

Regarding `COc1cc(OC/C(=C/F)CN)ccc1C#N` [Compound 7], the IC50 at Recombinant human MAO-B is 50 to 500 nM; at recombinant human MAO-A, above 30000 nM; in test [1], 10 to 500 nM.

As to `N#Cc1ccccc1OC/C(=C/F)CN` [Compound 8], the IC50 was below 50 nM on Recombinant human MAO-B, below 300 nM at recombinant human MAO-A and above 1000 nM in test [1].

Take `N#Cc1cccc(OC/C(=C/F)CN)c1` [Compound 9]: the IC50 on Recombinant human MAO-B is below 50 nM; at recombinant human MAO-A, 300 to 3000 nM; in test [1] it was below 10 nM.

Turning to `NC/C(=C\F)COc1ccccc1` [Compound 10], the IC50 on Recombinant human MAO-B was below 50 nM; on recombinant human MAO-A, 300 to 3000 nM; in test [1] it was 10 to 500 nM.

Turning to `NC/C(=C\F)COc1ccc(C(F)(F)F)cc1` [Compound 11], the IC50 was below 50 nM at Recombinant human MAO-B, 3000 to 30000 nM on recombinant human MAO-A and below 10 nM in test [1].

As to `CS(=O)(=O)c1ccc(OC/C(=C/F)CN)cc1` [Compound 12], the IC50 was above 1000 nM at Recombinant human MAO-B, above 30000 nM at recombinant human MAO-A and below 10 nM in test [1].

For `NC/C(=C\F)COc1ccc(OC(F)(F)F)cc1` [Compound 13], the IC50 is below 50 nM on Recombinant human MAO-B, below 300 nM at recombinant human MAO-A and below 10 nM in test [1].

For `COc1ccc(OC/C(=C\F)CN)cc1` [Compound 14], the figures for the IC50 (on Recombinant human MAO-B; on recombinant human MAO-A; in test [1]) were below 50 nM, 300 to 3000 nM and below 10 nM, respectively.

On to `C[C@H](NCc1ccc(OCc2cccc(F)c2)cc1)C(N)=O` [safinamide], for which, in the test with mdx mice, the “myofiber damage, oxidative stress and muscle function” value is “reduced myofiber damage and oxidative stress, and improved muscle function”. The “susceptibility (sensitivity) to oxidative stress” value in test [2] was “abrogated”.

(Values after patent US12428370B2, “Haloallylamine dual amine oxidase inhibitors” (Syntara Limited, priority 2020, dated 2025).)
